Earlier results on one compound are cited in patent US20260216081A1, “METFORMIN HYDROCHLORIDE ENTERIC-COATED PREPARATION” (YAYAN (TIANJIN) BIOMEDICAL TECHNOLOGY CENTER (LIMITED …, priority 2023, published 2026).

For the data set the following is noted: background statement.

In the case of `CN(C)C(=N)N=C(N)N` [metformin], the “Incidence of gastrointestinal adverse reactions” value is on record as 20-30%.
